Measured values reported in ChEMBL document CHEMBL5154659, “A3 adenosine receptor agonists containing dopamine moieties for enhanced interspecies affinity” (Eur J Med Chem, 2022).
≈ marks a conversion by molar mass, not a printed value.

What was measured:
Adenosine receptor A2a [1] = molecular target: T1, Adenosine receptor A2a (Homo sapiens, UniProt P29274); assay: Binding affinity to human adenosine A2A receptor expressed in human HEK293 cell membrane at 10 uM by radioligand inhibition assay; assay type: cell membranes
T1 sequence (P29274 whole entry): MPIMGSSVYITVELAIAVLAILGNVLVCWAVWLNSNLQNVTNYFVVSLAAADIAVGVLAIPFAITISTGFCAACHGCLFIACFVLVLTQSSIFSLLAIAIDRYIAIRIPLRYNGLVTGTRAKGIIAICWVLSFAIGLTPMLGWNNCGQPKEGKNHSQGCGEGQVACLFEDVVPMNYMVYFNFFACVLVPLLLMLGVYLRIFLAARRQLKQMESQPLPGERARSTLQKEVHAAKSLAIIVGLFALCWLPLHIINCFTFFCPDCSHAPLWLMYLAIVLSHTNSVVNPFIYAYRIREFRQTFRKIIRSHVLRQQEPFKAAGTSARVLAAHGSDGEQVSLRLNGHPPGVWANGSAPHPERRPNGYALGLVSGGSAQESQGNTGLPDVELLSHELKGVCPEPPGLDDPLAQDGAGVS

Adenosine receptor A1 [2] = molecular target: T2, Adenosine receptor A1 (Homo sapiens, UniProt P30542); assay: Displacement of [3H] N6-R-phenylisopropyladenosine from human A1A receptor stably expressed in HEK293 cell membrane by radioligand inhibition assay; assay type: cell membranes
T2 sequence (P30542 whole entry): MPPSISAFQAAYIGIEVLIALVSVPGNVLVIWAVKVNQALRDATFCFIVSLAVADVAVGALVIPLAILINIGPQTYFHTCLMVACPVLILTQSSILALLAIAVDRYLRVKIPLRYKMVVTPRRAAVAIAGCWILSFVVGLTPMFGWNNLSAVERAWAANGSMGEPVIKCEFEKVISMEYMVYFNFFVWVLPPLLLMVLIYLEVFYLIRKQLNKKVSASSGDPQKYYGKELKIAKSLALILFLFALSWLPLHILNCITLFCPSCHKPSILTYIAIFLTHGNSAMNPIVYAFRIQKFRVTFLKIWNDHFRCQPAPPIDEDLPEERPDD

Adenosine receptor A3 [3] = molecular target: T3, Adenosine receptor A3 (Homo sapiens, UniProt P0DMS8); assay: Displacement of [125I] N6-(4-amino-3-iodobenzyl)adenosine-5'-N-methyluronamide from human A3A receptor stably expressed in HEK293 cell membrane by radioligand inhibition assay; assay type: cell membranes
T3 sequence (P0DMS8 whole entry): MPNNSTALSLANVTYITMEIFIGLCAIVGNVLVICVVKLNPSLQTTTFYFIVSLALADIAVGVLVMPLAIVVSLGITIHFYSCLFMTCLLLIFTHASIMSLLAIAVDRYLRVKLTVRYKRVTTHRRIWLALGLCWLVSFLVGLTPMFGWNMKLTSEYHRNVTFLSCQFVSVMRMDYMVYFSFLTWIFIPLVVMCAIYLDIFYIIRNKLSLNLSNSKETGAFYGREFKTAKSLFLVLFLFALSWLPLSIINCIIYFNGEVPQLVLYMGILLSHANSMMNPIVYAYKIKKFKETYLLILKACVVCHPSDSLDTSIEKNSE

Adenosine receptor A1 [4] = molecular target: T4, Adenosine receptor A1 (Mus musculus, UniProt Q60612); assay: Displacement of [3H] N6-R-phenylisopropyladenosine from mouse A1A receptor stably expressed in HEK293 cell membrane by radioligand inhibition assay; assay type: cell membranes
T4 sequence (Q60612 whole entry): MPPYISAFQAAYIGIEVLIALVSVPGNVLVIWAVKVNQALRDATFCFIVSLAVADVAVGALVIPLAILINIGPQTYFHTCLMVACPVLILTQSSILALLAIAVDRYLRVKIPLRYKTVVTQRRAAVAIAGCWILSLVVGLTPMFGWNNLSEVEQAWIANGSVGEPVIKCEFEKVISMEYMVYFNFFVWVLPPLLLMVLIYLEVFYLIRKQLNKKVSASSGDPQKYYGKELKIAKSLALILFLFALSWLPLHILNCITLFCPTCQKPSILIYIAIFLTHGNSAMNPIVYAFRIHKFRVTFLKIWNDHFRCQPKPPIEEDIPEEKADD

Adenosine receptor A3 [5] = molecular target: T5, Adenosine receptor A3 (Mus musculus, UniProt Q61618); assay: Displacement of [125I] N6-4-amino-3-iodobenzyl adenosine 5-N-methyluronamide from mouse A3A receptor stably expressed in HEK293 cell membrane by radioligand inhibition assay; assay type: cell membranes
T5 sequence (Q61618 whole entry): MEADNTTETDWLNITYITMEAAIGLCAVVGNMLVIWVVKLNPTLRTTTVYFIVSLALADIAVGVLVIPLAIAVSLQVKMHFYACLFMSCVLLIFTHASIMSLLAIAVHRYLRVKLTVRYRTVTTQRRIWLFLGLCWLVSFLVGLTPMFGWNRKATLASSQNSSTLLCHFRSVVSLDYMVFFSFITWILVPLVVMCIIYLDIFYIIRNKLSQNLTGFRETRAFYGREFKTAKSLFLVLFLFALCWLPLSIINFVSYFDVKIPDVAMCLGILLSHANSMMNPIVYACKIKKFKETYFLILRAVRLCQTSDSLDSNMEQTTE

[6] = Aqueous solubility of compound at pH 7.4; assay type: physicochemical
[7] = Oral bioavailability in Wistar rat at 10 mg/kg; assay type: ADME, organism-based; details: in vivo
[8] = molecular target: Voltage-gated inwardly rectifying potassium channel KCNH2 (Homo sapiens, UniProt Q12809); assay: Inhibition of human ERG; assay type: toxicity
Sequence of Voltage-gated inwardly rectifying potassium channel KCNH2 (Q12809 whole entry): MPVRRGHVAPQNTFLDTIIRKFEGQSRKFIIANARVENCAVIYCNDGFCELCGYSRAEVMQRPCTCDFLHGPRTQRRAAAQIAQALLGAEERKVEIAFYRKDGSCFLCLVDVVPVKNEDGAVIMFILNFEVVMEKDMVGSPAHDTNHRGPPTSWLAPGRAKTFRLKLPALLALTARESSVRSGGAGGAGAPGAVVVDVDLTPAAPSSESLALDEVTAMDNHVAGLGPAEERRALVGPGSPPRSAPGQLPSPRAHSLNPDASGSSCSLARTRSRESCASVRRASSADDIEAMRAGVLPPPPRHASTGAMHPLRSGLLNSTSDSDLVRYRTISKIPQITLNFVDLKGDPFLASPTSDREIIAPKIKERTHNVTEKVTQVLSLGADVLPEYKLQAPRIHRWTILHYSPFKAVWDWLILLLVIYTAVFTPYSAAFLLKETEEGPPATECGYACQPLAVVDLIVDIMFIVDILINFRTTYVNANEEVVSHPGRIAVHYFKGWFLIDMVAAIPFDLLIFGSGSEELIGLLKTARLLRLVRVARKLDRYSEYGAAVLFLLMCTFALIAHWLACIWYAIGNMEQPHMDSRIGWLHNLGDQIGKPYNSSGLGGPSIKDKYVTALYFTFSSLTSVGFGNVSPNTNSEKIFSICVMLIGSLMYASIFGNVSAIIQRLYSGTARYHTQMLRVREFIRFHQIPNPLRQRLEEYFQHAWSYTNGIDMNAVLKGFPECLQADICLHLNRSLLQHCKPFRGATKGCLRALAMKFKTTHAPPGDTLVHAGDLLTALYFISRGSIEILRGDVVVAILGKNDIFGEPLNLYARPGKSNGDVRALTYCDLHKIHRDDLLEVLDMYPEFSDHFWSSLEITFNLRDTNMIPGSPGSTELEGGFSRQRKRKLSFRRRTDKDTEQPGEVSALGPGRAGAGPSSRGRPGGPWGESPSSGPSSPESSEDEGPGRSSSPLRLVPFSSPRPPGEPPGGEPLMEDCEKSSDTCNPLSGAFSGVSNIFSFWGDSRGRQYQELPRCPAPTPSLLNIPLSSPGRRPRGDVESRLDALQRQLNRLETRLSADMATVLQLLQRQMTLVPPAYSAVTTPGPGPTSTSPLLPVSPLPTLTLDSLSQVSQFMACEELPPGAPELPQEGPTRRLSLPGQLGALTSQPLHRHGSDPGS

[9] = Half life in Wistar rat at 0.5 mg/kg, iv; assay type: ADME, organism-based; details: in vivo
[10] = molecular target: T6, Adenosine receptor A1 (Homo sapiens) (UniProt P30542); assay: Binding affinity to human adenosine A1A receptor expressed in human HEK293 cell membrane at 10 uM by radioligand inhibition assay; assay type: cell membranes
T6 sequence (whole entry): T2 sequence (P30542 whole entry)

[11] = Stability of the compound in simulated intestinal fluid assessed as parent compound remaining at 120 mins; assay type: ADME; details: simulated gi fluid, 2 h
[12] = Stability of the compound in simulated gastric fluid assessed as parent compound remaining at 120 mins; assay type: ADME; details: simulated gi fluid, 2 h
Cytochrome P450 1A2 = molecular target: T7, Cytochrome P450 1A2 (Homo sapiens, UniProt P05177); assay: Inhibition of CYP1A2 (unknown origin); assay type: ADME
T7 sequence (P05177 whole entry): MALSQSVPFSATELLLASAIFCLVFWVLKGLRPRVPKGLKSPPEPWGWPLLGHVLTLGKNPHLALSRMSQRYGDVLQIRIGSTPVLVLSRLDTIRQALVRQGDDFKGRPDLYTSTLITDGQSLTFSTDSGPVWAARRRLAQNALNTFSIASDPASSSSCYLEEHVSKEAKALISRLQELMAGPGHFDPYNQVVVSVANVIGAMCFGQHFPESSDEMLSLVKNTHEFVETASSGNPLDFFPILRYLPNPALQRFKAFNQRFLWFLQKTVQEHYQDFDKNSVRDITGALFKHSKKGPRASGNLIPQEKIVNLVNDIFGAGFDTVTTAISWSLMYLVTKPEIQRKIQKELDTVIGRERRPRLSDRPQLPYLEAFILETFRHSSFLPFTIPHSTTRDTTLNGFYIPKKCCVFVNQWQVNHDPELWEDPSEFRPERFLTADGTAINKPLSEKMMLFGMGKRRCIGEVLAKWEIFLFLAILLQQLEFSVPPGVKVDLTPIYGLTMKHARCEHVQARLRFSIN

Cytochrome P450 2C9 = Cytochrome P450 2C9 (Homo sapiens, UniProt P11712); assay: Inhibition of CYP2C9 (unknown origin); assay type: ADME
Sequence of Cytochrome P450 2C9 (P11712 whole entry): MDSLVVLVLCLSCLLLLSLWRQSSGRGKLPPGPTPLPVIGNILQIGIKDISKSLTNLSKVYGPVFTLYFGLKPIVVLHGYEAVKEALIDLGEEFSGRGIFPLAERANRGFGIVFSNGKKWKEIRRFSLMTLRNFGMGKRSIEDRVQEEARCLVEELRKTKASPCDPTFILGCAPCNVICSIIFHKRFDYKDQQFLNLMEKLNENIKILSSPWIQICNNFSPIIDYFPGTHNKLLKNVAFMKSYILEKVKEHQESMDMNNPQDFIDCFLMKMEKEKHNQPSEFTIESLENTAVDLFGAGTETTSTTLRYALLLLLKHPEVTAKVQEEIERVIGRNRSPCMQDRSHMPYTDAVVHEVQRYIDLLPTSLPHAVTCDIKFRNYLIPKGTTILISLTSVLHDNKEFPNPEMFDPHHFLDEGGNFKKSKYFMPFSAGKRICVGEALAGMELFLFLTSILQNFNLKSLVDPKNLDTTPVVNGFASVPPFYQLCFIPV

Cytochrome P450 2C19 = Cytochrome P450 2C19 (Homo sapiens, UniProt P33261); assay: (§1) Inhibition of CYP2C19 (unknown origin); assay type: ADME
Sequence of Cytochrome P450 2C19 (P33261 whole entry): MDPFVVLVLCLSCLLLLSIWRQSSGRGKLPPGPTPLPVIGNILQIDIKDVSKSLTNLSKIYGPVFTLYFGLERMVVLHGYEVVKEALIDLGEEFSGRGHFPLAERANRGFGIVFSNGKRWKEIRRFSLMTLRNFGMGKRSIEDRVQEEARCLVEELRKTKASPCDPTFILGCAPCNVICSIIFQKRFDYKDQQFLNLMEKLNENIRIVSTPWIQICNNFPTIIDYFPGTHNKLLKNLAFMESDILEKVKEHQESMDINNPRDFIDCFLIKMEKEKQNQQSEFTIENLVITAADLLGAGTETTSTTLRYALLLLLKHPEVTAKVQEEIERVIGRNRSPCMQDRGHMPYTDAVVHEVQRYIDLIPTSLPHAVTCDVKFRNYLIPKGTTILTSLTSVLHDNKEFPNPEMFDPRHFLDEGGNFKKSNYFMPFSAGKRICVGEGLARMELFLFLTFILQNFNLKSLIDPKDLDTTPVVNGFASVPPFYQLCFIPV

Cytochrome P450 2D6 = Cytochrome P450 2D6 (Homo sapiens, UniProt P10635); assay: (§2) Inhibition of CYP2D6 (unknown origin); assay type: ADME
Sequence of Cytochrome P450 2D6 (P10635 whole entry): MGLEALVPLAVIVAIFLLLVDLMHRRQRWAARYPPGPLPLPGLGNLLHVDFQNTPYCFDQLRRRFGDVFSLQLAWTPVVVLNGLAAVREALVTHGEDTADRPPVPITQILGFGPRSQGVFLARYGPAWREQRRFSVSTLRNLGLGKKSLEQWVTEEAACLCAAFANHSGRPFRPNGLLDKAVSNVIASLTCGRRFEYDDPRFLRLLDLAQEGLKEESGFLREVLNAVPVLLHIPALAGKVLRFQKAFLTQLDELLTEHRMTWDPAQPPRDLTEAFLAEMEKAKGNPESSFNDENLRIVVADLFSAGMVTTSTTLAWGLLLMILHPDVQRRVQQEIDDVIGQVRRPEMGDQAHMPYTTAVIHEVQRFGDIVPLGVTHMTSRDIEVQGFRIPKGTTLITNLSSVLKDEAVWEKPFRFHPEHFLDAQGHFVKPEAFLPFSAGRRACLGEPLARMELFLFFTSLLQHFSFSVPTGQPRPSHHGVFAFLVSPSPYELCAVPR

Cytochrome P450 3A4 = Cytochrome P450 3A4 (Homo sapiens, UniProt P08684); assay: Inhibition of CYP3A4 (unknown origin); assay type: ADME
Sequence of Cytochrome P450 3A4 (P08684 whole entry): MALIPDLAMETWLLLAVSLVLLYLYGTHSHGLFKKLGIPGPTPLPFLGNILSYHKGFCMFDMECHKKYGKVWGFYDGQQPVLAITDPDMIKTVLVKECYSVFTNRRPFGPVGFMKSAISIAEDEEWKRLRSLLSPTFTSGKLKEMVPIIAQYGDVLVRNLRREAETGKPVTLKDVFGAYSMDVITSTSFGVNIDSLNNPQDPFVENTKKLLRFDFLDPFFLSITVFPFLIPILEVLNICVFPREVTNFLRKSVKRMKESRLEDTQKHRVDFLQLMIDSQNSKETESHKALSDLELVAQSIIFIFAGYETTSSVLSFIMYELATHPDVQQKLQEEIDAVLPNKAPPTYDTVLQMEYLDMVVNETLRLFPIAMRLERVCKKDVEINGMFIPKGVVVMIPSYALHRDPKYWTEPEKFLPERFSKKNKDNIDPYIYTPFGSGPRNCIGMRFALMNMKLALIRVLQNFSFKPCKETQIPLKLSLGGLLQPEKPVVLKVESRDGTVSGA

[13] = Stability in human plasma assessed as parent compound remaining measured after 120 mins; assay type: ADME, cell-free; details: 2 h
[14] = Stability in Wistar rat plasma assessed as parent compound remaining measured after 120 mins; assay type: ADME, cell-free; details: 2 h
[15] = Stability in mouse plasma assessed as parent compound remaining measured after 120 mins; assay type: ADME, cell-free; details: 2 h
[16] = Apparent permeability across apical to basolateral side in human Caco-2 cells; assay type: ADME, cell-based
[17] = Efflux ratio of permeability in human Caco2 cells; assay type: ADME, cell-based; details: caco-2
[18] = Microsomal stability in mouse plasma assessed as half life; assay type: ADME, cell-free
[19] = Microsomal stability in Wistar rat plasma assessed as half life; assay type: ADME, cell-free
[20] = Microsomal stability in human plasma assessed as half life; assay type: ADME, cell-free
[21] = Oral bioavailability in Wistar rat at 3 mg/kg; assay type: ADME, organism-based; details: in vivo
Adenosine receptor A2a [22] = molecular target: T1, Adenosine receptor A2a; assay: Displacement of [3H]-2-p-2-(carboxyethyl)phenyl-ethylamino-5'-N-ethylcarboxamidoadenosine from human A2A receptor stably expressed in HEK293 cell membrane by radioligand inhibition assay; assay type: cell membranes
CYP2C19 = CYP2C19 (Homo sapiens, UniProt P33261); assay: as §1; assay type: ADME
Sequence of CYP2C19 (P33261 whole entry): as the sequence (P33261 whole entry) above

CYP2D6 = CYP2D6 (Homo sapiens, UniProt P10635); assay: as §2; assay type: ADME
Sequence of CYP2D6 (P10635 whole entry): as the sequence (P10635 whole entry) above

| Structure (SMILES) | inhibition (Adenosine receptor A2a [1]) [%] | Ki (Adenosine receptor A3 [3]) [nM] | Ki (Adenosine receptor A1 [4]) [nM] | Ki (Adenosine receptor A3 [5]) [nM] | solubility ([6]; buffer) [µg/mL] | IC50 [8] [nM] | half-life [9] [min] | Stability [11] [%] | Stability [12] [%] | IC50 (Cytochrome P450 1A2) [nM] | IC50 (Cytochrome P450 2C9) [nM] | IC50 (Cytochrome P450 2C19) [nM] | IC50 (Cytochrome P450 2D6) [nM] | IC50 (Cytochrome P450 3A4) [nM] | Stability [13] [%] | Stability [14] [%] | Stability [15] [%] | half-life [18] [min] | half-life [19] [min] | half-life [20] [min] | further results |
| --- | --- | --- | --- | --- | --- | --- | --- | --- | --- | --- | --- | --- | --- | --- | --- | --- | --- | --- | --- | --- | --- |
| CNC(=O)[C@@]12C[C@@H]1[C@@H](n1cnc3c(NCCc4ccccc4)nc(I)nc31)[C@H](O)[C@@H]2O | 39 | 4.48 | 272 | 1.69 | – | – | – | – | – | – | – | – | – | – | – | – | – | – | – | – | Ki (Adenosine receptor A1 [2]): 574 nM |
| CNC(=O)[C@@]12C[C@@H]1[C@@H](n1cnc3c(NCCc4ccc(OC)c(OC)c4)nc(C#Cc4ccc(Cl)s4)nc31)[C@H](O)[C@@H]2O | 16 | 8.67 | 7050 | 2.21 | 3.84 (≈ 6.3 µM) | 3650 | 43.9 | 100 | 100 | 430 | > 30000 | 15100 | 17700 | 780 | 100 | 100 | 100 | 6.72 | 11.5 | 2 | bioavailability [7]: 1.88%; inhibition [10]: 0%; Papp [16]: 0.44 10^-6 cm/s; Ratio [17]: 46.6 |
| CNC(=O)[C@@]12C[C@@H]1[C@@H](n1cnc3c(NCCc4ccc(OC)c(O)c4)nc(OCC(C)C)nc31)[C@H](O)[C@@H]2O | – | – | 317 | 17.6 | 167 (≈ 317 µM) | 16500 | 101 | 64.5 | 100 | 250 | > 30000 | > 30000 | > 30000 | 830 | 56.9 | 84.6 | 94.6 | 9.15 | 22.5 | 6.51 | bioavailability [21]: 4.34%; Ki (Adenosine receptor A2a [22]): 588 nM |
| COc1cc(CCNc2nc(C#Cc3ccccc3)nc3c2ncn3[C@H]2[C@H](O)[C@H](O)[C@@H]3C[C@@H]32)ccc1O | – | – | – | – | – | 5390 | 16.4 | – | – | – | – | – | – | – | – | – | – | 7.92 | 15.7 | 16.3 | solubility ([6]; aqueous, read-out: solubility): 13 µg/mL (≈ 26.1 µM); IC50 (CYP2C19): > 30000 nM; IC50 (CYP2D6): > 30000 nM; Papp A→B [16]: 2.71 ×10⁻⁶ cm/s |
